According to the NIST ThermoML archive (doi:10.1016/j.jct.2013.12.028):

Tests used:
[1] = refractive index (Na D-line) (dimensionless); conditions: 298.15 K; 101.33 kPa; Liquid; Pulfrich refractometry
[2] = 101.33 kPa, Liquid, Vibrating tube method

C1CCOC1 [tetrahydrofuran]
Conditions | refractive index
[1] | 1.4048

[2]
Conditions | mass density [kg/m3]
278.15 K | 903.68
283.15 K | 898.309
288.15 K | 892.903
293.15 K | 887.471
298.15 K | 882.005
303.15 K | 876.513
308.15 K | 870.981
313.15 K | 865.414
318.15 K | 859.81
